These results are taken from ChEMBL document CHEMBL4765434, “Pyrrolo[2,3-d]pyrimidine derivatives as inhibitors of RET: Design, synthesis and biological evaluation” (Eur J Med Chem, 2020).

Calls of active or inactive are those of the source. No cut-off for these calls is given here.

Experiment [1] deals with T1, Proto-oncogene tyrosine-protein kinase receptor Ret (Homo sapiens, UniProt P07949). As to the kind of experiment: Inhibition of recombinant human GST-tagged RET cytoplasmic domain (658 to 1114 residues) expressed in baculovirus expression system using 5-FAM-EEPLYWSFPAKKK-CONH2 as substrate preincubated for 60 mins followed by substrate addition by microfluidic assay.

Experiment [2] relates to LC-2-ad. As to the kind of experiment: Growth inhibition of human LC-2-ad cells measured after 3 days by resazurin staining based fluorescence assay. It counts as functional. The following applies: 72 h, time 3 day.
Experiment [3] concerns LC-2-ad. As to the kind of experiment: Inhibition of cell migration in human LC-2-ad cells assessed as migrated distance at 1 uM measured after 52 hrs by microscopic method (reference value: 819.01 +/- 65.76 micrometer). The experiment is classed as functional.
Experiment [4] addresses Proto-oncogene tyrosine-protein kinase receptor Ret (Homo sapiens, UniProt P07949, V804M). As to the kind of experiment: Inhibition of recombinant human N-terminal GST-HIS6 fused RET V804M mutant (658 to 1114 residues) expressed in Sf9 insect cells using 5-FAM-EEPLYWSFPAKKK-CONH2 as substrate preincubated for 60 mins followed by substrate addition by microfluidic assay.
Experiment [5] concerns the target T1, Proto-oncogene tyrosine-protein kinase receptor Ret. As to the kind of experiment: Non competitive inhibition of recombinant human GST-tagged RET cytoplasmic domain (658 to 1114 residues) expressed in baculovirus expression system at 3.125 to 50 nM using 5-FAM-EEPLYWSFPAKKK-CONH2 as substrate by Lineweaver-burk plot analysis. The following applies: dose 3.125-50 nM.

Experiment [6] has the same target. As to the kind of experiment: Non ATP-competitive inhibition of recombinant human GST-tagged RET cytoplasmic domain (658 to 1114 residues) expressed in baculovirus expression system at 3.125 to 50 nM using 5-FAM-EEPLYWSFPAKKK-CONH2 as substrate. The following applies: dose 3.125-50 nM.
Experiment [7] deals with Mitogen-activated protein kinase kinase kinase kinase 4 (Homo sapiens, UniProt O95819). As to the kind of experiment: Inhibition of MAP4K4 (unknown origin).
Experiment [8] has as its target Epidermal growth factor receptor (Homo sapiens, UniProt P00533). As to the kind of experiment: Inhibition of EGFR (unknown origin).
The target in a further experiment is T2, Aurora kinase A (Homo sapiens, UniProt O14965).
T2 sequence (O14965 whole entry): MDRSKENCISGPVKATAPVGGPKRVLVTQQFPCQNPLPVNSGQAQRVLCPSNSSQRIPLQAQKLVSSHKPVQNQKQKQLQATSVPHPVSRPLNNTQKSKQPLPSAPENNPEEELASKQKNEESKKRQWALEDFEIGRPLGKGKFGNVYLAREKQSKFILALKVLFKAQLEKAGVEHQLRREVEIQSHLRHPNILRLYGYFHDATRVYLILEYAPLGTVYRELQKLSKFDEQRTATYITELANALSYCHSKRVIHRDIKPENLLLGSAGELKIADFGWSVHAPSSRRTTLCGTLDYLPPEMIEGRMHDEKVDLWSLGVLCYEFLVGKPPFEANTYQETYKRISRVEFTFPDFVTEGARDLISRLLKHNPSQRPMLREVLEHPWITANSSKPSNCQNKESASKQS
As to the kind of experiment: Inhibition of Aurora A (unknown origin).

The target of experiment [9] is Macrophage colony-stimulating factor 1 receptor (Homo sapiens, UniProt P07333). As to the kind of experiment: Inhibition of CSF1R (unknown origin).
Another experiment has as its target Aurora kinase B (Homo sapiens, UniProt Q96GD4). As to the kind of experiment: Inhibition of Aurora B (unknown origin).
Experiment [10] concerns LC-2-ad. As to the kind of experiment: Inhibition of cell migration in human LC-2-ad cells assessed as migrated distance at 3 uM measured after 52 hrs by microscopic method (reference value: 819.01 +/- 65.76 micrometer). The experiment is classed as functional.
Experiment [11] concerns the target T3, Serine/threonine-protein kinase Nek2 (Homo sapiens, UniProt P51955).
T3 sequence (P51955 whole entry): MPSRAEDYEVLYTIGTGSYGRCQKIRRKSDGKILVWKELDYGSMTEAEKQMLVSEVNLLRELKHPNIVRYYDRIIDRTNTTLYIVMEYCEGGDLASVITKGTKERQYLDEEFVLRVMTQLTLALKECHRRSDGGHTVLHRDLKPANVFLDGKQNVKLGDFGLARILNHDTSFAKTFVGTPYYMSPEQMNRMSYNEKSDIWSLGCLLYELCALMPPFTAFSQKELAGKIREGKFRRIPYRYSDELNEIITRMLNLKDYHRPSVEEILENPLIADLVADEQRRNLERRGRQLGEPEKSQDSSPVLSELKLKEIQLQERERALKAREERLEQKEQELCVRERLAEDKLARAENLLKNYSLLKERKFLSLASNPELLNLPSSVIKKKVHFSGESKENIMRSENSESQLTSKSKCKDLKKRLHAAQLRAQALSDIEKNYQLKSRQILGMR
As to the kind of experiment: Inhibition of Nek2 (unknown origin).

Experiment [12] addresses Mitogen-activated protein kinase kinase kinase 14 (Homo sapiens, UniProt Q99558). As to the kind of experiment: Inhibition of NIK (unknown origin).

T1 sequence (P07949 whole entry, the tested form may be a part): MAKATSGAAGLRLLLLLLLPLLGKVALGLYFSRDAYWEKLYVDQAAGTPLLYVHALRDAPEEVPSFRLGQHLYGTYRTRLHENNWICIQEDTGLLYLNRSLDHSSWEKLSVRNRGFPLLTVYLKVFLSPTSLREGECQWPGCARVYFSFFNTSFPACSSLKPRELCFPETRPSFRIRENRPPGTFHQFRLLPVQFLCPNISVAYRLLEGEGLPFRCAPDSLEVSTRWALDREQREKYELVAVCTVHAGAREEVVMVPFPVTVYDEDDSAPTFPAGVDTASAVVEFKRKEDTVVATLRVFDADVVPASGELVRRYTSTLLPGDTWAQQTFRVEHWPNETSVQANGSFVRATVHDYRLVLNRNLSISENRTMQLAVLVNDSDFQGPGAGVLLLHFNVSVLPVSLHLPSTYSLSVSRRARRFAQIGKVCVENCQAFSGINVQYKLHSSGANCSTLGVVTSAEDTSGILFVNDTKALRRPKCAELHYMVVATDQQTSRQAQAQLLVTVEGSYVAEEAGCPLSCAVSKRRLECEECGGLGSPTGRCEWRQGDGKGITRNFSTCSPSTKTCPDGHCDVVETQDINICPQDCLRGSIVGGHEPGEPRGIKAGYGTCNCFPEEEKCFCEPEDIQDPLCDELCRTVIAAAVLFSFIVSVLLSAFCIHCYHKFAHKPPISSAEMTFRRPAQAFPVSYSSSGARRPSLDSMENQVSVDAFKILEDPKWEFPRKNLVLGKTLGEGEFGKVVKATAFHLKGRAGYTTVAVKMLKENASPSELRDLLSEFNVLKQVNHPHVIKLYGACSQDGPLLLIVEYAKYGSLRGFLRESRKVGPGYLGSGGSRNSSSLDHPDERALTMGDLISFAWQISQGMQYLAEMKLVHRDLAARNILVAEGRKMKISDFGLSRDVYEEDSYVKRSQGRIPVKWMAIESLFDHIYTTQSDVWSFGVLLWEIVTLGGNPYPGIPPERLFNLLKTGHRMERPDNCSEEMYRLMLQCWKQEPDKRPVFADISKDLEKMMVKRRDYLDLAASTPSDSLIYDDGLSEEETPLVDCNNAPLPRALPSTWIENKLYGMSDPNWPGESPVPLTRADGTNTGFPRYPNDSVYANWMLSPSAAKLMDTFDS
Chain of Proto-oncogene tyrosine-protein kinase receptor Ret (Homo sapiens, UniProt P07949, V804M) (P07949 29-1114 V804M limits assumed): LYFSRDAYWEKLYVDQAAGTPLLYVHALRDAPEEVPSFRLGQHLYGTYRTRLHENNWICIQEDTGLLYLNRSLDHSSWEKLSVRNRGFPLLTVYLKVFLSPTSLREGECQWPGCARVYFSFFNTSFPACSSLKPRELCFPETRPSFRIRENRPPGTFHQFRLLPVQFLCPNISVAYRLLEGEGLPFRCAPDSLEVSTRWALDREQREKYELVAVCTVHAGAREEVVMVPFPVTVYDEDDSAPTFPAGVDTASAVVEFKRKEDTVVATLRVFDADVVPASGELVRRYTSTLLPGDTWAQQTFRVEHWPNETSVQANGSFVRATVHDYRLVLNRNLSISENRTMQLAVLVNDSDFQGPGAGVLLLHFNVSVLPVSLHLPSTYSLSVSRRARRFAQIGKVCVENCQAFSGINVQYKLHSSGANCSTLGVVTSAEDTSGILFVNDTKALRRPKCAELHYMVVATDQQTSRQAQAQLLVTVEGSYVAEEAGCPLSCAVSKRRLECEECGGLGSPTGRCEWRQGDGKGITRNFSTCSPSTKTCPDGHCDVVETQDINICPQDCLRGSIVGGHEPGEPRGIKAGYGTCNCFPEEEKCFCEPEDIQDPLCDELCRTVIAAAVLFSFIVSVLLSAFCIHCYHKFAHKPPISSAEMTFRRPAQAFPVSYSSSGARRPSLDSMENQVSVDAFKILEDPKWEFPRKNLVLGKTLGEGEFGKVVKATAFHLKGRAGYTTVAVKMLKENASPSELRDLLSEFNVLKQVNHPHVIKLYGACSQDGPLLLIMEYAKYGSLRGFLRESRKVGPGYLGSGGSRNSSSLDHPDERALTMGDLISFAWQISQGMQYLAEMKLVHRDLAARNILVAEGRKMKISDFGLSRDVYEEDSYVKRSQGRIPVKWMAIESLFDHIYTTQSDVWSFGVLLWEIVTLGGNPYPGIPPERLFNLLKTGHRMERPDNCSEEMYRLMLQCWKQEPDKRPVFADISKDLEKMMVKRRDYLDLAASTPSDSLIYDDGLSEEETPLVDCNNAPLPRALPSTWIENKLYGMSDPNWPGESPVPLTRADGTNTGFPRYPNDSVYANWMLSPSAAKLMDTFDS
Chain of Mitogen-activated protein kinase kinase kinase kinase 4 (O95819 whole entry): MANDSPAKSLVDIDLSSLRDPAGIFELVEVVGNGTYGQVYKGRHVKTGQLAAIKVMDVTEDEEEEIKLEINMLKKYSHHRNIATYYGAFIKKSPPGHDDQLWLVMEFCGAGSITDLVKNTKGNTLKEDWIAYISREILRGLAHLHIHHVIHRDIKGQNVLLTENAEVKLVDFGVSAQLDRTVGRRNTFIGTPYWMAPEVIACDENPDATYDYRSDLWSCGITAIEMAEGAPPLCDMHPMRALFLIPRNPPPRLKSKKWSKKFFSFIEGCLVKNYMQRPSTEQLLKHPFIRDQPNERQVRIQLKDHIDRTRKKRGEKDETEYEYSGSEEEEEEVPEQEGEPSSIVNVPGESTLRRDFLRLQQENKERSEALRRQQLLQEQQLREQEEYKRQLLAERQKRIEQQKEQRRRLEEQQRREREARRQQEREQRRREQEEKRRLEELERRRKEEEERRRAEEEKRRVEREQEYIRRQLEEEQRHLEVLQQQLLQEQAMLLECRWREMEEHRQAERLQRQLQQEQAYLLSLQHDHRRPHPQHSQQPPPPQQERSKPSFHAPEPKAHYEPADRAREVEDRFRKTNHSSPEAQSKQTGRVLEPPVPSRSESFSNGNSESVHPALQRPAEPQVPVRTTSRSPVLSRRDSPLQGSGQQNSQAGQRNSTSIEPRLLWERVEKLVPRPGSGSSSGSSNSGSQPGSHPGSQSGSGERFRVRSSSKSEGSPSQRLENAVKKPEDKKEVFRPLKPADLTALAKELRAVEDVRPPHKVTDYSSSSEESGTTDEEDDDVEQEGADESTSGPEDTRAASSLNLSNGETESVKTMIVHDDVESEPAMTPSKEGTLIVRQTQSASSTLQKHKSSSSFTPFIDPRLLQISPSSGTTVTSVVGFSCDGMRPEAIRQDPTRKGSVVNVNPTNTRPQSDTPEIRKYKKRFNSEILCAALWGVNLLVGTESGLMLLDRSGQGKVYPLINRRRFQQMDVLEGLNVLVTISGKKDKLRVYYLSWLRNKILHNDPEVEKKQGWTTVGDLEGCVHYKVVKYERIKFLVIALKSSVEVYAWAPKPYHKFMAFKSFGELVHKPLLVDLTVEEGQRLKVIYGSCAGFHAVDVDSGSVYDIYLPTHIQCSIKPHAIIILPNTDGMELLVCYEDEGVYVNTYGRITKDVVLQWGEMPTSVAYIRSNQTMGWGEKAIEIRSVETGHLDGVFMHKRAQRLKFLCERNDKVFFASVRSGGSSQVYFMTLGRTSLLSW
Chain of Mitogen-activated protein kinase kinase kinase 14 (Q99558 whole entry): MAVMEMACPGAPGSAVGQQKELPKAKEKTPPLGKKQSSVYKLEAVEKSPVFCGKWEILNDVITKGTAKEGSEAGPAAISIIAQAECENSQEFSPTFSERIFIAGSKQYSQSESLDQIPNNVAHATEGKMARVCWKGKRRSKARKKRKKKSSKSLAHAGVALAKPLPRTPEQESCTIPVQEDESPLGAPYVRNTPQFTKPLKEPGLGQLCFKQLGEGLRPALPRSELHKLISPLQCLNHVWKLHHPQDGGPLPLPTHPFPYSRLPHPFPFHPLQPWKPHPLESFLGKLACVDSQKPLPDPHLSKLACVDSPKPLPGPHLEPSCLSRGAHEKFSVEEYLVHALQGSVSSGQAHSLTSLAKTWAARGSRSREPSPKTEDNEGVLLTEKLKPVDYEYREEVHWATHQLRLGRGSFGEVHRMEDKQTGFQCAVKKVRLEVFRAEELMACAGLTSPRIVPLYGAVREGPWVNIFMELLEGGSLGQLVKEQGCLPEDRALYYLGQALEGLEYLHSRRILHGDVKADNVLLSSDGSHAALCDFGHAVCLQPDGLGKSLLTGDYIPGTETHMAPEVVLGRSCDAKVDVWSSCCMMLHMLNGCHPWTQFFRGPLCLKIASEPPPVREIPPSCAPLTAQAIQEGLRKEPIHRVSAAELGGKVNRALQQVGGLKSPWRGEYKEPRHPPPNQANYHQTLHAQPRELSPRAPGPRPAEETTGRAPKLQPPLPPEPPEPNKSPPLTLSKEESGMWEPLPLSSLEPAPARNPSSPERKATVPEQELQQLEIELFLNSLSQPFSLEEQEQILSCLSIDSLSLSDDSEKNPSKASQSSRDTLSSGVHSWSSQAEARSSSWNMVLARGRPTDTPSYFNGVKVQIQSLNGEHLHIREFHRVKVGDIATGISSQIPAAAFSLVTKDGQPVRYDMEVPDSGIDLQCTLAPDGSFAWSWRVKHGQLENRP
Chain of Aurora kinase B (Q96GD4 whole entry): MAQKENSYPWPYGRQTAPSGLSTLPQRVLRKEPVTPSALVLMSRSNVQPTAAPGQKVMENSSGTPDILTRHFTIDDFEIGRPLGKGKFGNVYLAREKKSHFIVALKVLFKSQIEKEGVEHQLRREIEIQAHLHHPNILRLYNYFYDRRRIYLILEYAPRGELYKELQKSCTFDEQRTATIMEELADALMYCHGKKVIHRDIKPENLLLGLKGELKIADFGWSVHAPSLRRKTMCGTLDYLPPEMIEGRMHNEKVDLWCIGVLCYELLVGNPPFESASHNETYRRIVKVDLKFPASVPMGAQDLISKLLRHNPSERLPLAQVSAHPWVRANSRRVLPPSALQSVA

As to `O=C(Cc1ccc(Nc2ncnc3sccc23)cc1)Nc1cccc(F)c1`, the IC50 in experiment [1] is over 20 µM. The same measure, in the same setting: under `CC(C)c1ccc(NC(=O)Cc2ccc(Nc3ncnc4[nH]c(-c5cnn(C)c5)cc34)cc2)cc1` stands over 20 µM.

In the case of `CC(C)c1ccc(NC(=O)Cc2ccc(Nc3ncnc4[nH]ccc34)cc2)cc1`, the GI50 in the experiment on LC-2-ad [2] was 29.6 µM. In experiment [1], the IC50 worked out at 7.69 µM. With `COc1cc2nccc(Oc3ccc(NC(=O)C4(C(=O)Nc5ccc(F)cc5)CC4)cc3)c2cc1OC` [CABOZANTINIB], the Activity with LC-2-ad [3] is reported as 287.3 um.

Regarding `Cn1nc(C(C)(C)C)cc1NC(=O)Cc1ccc(Nc2ncnc3c2ccn3C)cc1`, halving of growth in the experiment with LC-2-ad [2] (GI50) required 36.4 µM. Further, the IC50 in experiment [1] was 3.93 µM. In the case of `CC(C)(C)c1cc(NC(=O)Cc2ccc(Nc3ncnc4[nH]c(-c5ccsc5)cc34)cc2)no1`, growth in the experiment with LC-2-ad [2] was halved (GI50) at 0.18 µM. Moreover, the IC50 in [1] came to 0.05 µM. Molecule `Cn1nc(C(C)(C)C)cc1NC(=O)Cc1ccc(Nc2ncnc3sccc23)cc1` showed a GI50 in the experiment with LC-2-ad [2] of 17.5 µM. In [1], the IC50 came out at 1.06 µM. On to `O=C(Cc1ccc(Nc2ncnc3[nH]ccc23)cc1)Nc1cccc(F)c1`, for which the IC50 in [1] is over 20 µM. As for `O=C(Cc1ccc(Nc2ncnc3[nH]ccc23)cc1)Nc1cccc2ncccc12`, the IC50 in experiment [1] was determined as 19 µM. Consider `O=C(Cc1ccc(Nc2ncnc3[nH]ccc23)cc1)Nc1cccc(C(F)(F)F)c1`, for which the GI50 with LC-2-ad [2] worked out at 33.5 µM. The IC50 in experiment [1] turned out to be 16.2 µM.

With `COc1cc(NC(=O)Cc2ccc(Nc3ncnc4[nH]ccc34)cc2)cc(OC)c1OC`, the IC50 in experiment [1] is 47.6 µM. With `CC(C)(C)c1cc(NC(=O)Cc2cccc(Nc3ncnc4[nH]ccc34)c2)no1`, in the experiment on LC-2-ad [2], the GI50 worked out at 43.7 µM. Moreover, in experiment [1], the IC50 came to 31.6 µM. Take `Cn1cc(-c2cc3c(Nc4ccc(CC(=O)Nc5cc(C(C)(C)C)nn5C)cc4)ncnc3[nH]2)cn1`: the IC50 worked out at 0.0728 µM in [4] and 0.021 µM in experiment [1]. In the case of `O=C(Cc1ccc(Nc2ncnc3[nH]c(-c4ccsc4)cc23)cc1)Nc1cccc(F)c1`, the IC50 in experiment [1] was over 20 µM. With `O=C(Cc1ccc(Nc2ncnc3[nH]ccc23)cc1)Nc1ccc2c(c1)OCO2`, the IC50 in [1] was over 20 µM. `CC(C)(C)c1ccc(-c2cc3c(Nc4ccc(CC(=O)Nc5cccc(F)c5)cc4)ncnc3[nH]2)cc1`: in [1], the IC50 was over 20 µM. For `Cn1ccc2c(Nc3ccc(CC(=O)Nc4cc(C(C)(C)C)on4)cc3)ncnc21`, the IC50 in experiment [1] came to 3.51 µM. `COc1ccc(-c2cc3c(Nc4ccc(CC(=O)Nc5ccc(C(C)C)cc5)cc4)ncnc3[nH]2)cc1`: the IC50 in experiment [1] came out at 2.44 µM. Consider `Cn1cc(-c2cc3c(Nc4ccc(CC(=O)Nc5cc(C(C)(C)C)on5)cc4)ncnc3[nH]2)cn1`, for which growth with LC-2-ad [2] was halved (GI50) at 0.136 µM. For the same molecule, the results for the IC50 in [4] and in [1] were 0.0635 µM and 0.009 µM, respectively. Turning to `COc1ccc(-c2cc3c(Nc4ccc(CC(=O)Nc5cccc(F)c5)cc4)ncnc3[nH]2)cc1`, the IC50 in experiment [1] was over 20 µM. For `O=C(Cc1ccc(Nc2ncnc3[nH]ccc23)cc1)NCc1ccccc1`, the IC50 in experiment [1] stood at 4.65 µM. As to `CC(=O)c1ccc(-c2cc3c(Nc4ccc(CC(=O)Nc5cc(C(C)(C)C)on5)cc4)ncnc3[nH]2)cc1`, in [1], the IC50 stood at 0.044 µM. On to `CC(C)(C)c1ccc(NC(=O)Cc2ccc(Nc3ncnc4[nH]ccc34)cc2)cc1`, for which the IC50 in [1] stood at 15.8 µM. `CC(C)(C)c1cc(NC(=O)Cc2ccc(Nc3ncnc4[nH]ccc34)cc2)no1` registered a GI50 in the experiment on LC-2-ad [2] of 1.26 µM. Further, in [1], the IC50 is 0.076 µM. For the molecule `CC(C)(C)c1cc(NC(=O)Cc2ccc(Nc3ncnc4sccc34)cc2)no1`, in the experiment with LC-2-ad [2], the concentration for 50% growth inhibition (GI50) stood at 15.2 µM. Further, the IC50 in experiment [1] amounted to 0.96 µM. For `Cn1nc(C(C)(C)C)cc1NC(=O)Cc1ccc(Nc2ncnc3[nH]c(-c4ccc(S(C)(=O)=O)cc4)cc23)cc1`, in experiment [1], the IC50 was determined as 0.009 µM.

On to `O=C(Cc1ccc(Nc2ncnc3[nH]ccc23)cc1)NC1CC1`, for which, in the experiment on LC-2-ad [2], growth was halved (GI50) at 14 µM. The IC50 in experiment [1] amounted to 2.37 µM. With `Cn1nc(C(C)(C)C)cc1NC(=O)Cc1cccc(Nc2ncnc3[nH]ccc23)c1`, the IC50 in experiment [1] is 39.6 µM. In the case of `O=C(Cc1ccc(Nc2ncnc3[nH]ccc23)cc1)NC1CCC1`, the IC50 in [1] was found to be 3.91 µM. On to `CC(C)(C)c1cc(NC(=O)Cc2ccc(Nc3ncnc4[nH]c(-c5ccc(S(C)(=O)=O)cc5)cc34)cc2)no1`, for which the GI50 in the experiment on LC-2-ad [2] came to 0.107 µM. Also, the inhibition entry in experiment [5] and in [6] was “Active” in each case. The IC50 in [7] stood at 3.43 µM; in experiment [4], 0.0135 µM; in [8] it was 56.8 µM; against Aurora kinase A, 0.242 µM; in [9] it was 1.65 µM; in [1] it was 0.0068 µM. The IC50 was 0.536 µM against Aurora kinase B, over 200 µM in experiment [11] and over 10 µM in experiment [12]. Also, the Activity in the experiment on LC-2-ad [10] was 356.41 um. On to `O=C(Cc1ccc(Nc2ncnc3[nH]ccc23)cc1)Nc1ccc(C(F)(F)F)c(Cl)c1`, for which the IC50 in experiment [1] was over 20 µM.

In the case of `CS(=O)(=O)c1ccc(NC(=O)Cc2ccc(Nc3ncnc4[nH]ccc34)cc2)cc1`, the IC50 in experiment [1] was over 20 µM. The same measure, in the same setting: under `O=C(Cc1ccc(Nc2ncnc3[nH]ccc23)cc1)Nc1ccc(OC(F)(F)F)cc1` stands over 20 µM; under `Cn1nc(C(C)(C)C)cc1NC(=O)Cc1ccc(Nc2ncnc3[nH]c(-c4ccsc4)cc23)cc1`, 0.052 µM; under `CC(C)(C)c1ccc(-c2cc3c(Nc4ccc(CC(=O)Nc5cc(C(C)(C)C)on5)cc4)ncnc3[nH]2)cc1`, 13.5 µM. On the same count and under the same terms, with `Cn1cc(-c2cc3c(Nc4ccc(CC(=O)Nc5cccc(F)c5)cc4)ncnc3[nH]2)cn1` the figure was over 20 µM. Still for that read-out and setting: with `Cn1cc(-c2cc3c(Nc4ccc(CC(=O)Nc5cc(C(C)(C)C)nn5C)cc4)ncnc3s2)cn1` the figure was 1.39 µM; with `COc1ccc(-c2cc3c(Nc4ccc(CC(=O)Nc5cc(C(C)(C)C)nn5C)cc4)ncnc3[nH]2)cc1`, 0.12 µM; with `COc1ccc(-c2cc3c(Nc4ccc(CC(=O)Nc5ccc(F)cc5)cc4)ncnc3[nH]2)cc1`, over 20 µM. Take `Cn1cc(-c2cc3c(Nc4ccc(CC(=O)Nc5cc(C(C)(C)C)on5)cc4)ncnc3s2)cn1`: in experiment [1], the IC50 came to 0.82 µM. `Cn1nc(C(C)(C)C)cc1NC(=O)Cc1ccc(Nc2ncnc3[nH]ccc23)cc1`: the GI50 in the experiment on LC-2-ad [2] stood at 1.65 µM. Further, in experiment [1], the IC50 stood at 0.127 µM.

For orientation: IC50 means the point on the concentration scale where inhibition reaches its midpoint. As a reminder, the GI50 is the concentration that inhibits growth by half. Low values mean more potent growth inhibition, high ones less potent growth inhibition.
